Measured values published in patent US20210023159A1, “METHOD FOR PROMOTING GROWTH OF AKKERMANSIA MUCINIPHILA USING MUSA FERMENTS” (TCI CO., LTD., priority 2019, published 2021).

Tested on: Akkermansia muciniphila BCRC 81048 strain
Assay: Prebiotic test for A. muciniphila (single candidate prebiotics, plate count)
Assay type: cell-based
Conditions: 1% (w/w) candidate prebiotic in BHI medium, 48 h anaerobic incubation at 37° C.; control group = 100%
From the text: The Akkermansia muciniphila used in the Examples described herein is the Akkermansia muciniphila BCRC 81048 strain purchased from BCRC at the Food Industry Research and Development Institute (also deposited under ATCC BAA-835). For subsequent use in the prebiotic test, the A. muciniphila strain, after thawed and activation, was inoculated at 3% and pre-cultured in BHI medium (15 g BD Difco Brain Heart Infusion broth (Thermo Fischer Scientific) dissolved in 1 L deionized water at a pH value of about 7.0) at 37° C. under an anaerobic condition (10% carbon dioxide, 10% hydrogen, and 80% nitrogen) for 48 hours.
In order to identify the nutrients beneficial to the growth of A. muciniphila, pre-cultured A. muciniphila was inoculated at 3% in BHI medium containing 1% (w/w) of the candidate prebiotics and incubated at 37° C. under anaerobic conditions for 48 hours. The bacterial culture was then spread on BHI agar plates and incubated for 72 hours for bacterial counting. The candidate prebiotic was selected from xylooligosaccharides, isomaltooligosaccharides, lactitol, inulin, fructooligosaccharides, and a banana ferment. For comparison, A. muciniphila was alternatively incubated in BHI medium without candidate prebiotics (control group).

OC[C@@H](O)[C@@H](O[C@@H]1O[C@H](CO)[C@H](O)[C@H](O)[C@H]1O)[C@H](O)[C@@H](O)CO [lactitol]
relative bacterial count of A. muciniphila: ~258%

inulin
relative bacterial count of A. muciniphila: about 110%
